Data reported in ChEMBL document CHEMBL1158870, “Antitumor agents. 180. Chemical Studies and cytotoxic evaluation of cumingianosides and cumindysoside A, antileukemic triterpene glucosides with a 14,18-cycloapotirucallane skeleton” (1997).

Assays:
MDA-N = assay: Cytotoxicity against human MDA-N cells by SRB assay; assay type: functional
[1] = Cytotoxicity against human MCF7/ADR cells by SRB assay; assay type: functional; details: NCI/ADR-RES
COLO 205 = assay: Cytotoxicity against human COLO205 cells by SRB assay; assay type: functional
SN12C = assay: Cytotoxicity against human SN12C cells by SRB assay; assay type: functional
HT-29 = assay: Cytotoxicity against human HT29 cells by SRB assay; assay type: functional
IGROV-1 = assay: Cytotoxicity against human IGROV1 cells by SRB assay; assay type: functional
SK-OV-3 = assay: Cytotoxicity against human SKOV3 cells by SRB assay; assay type: functional
RXF 393 = assay: Cytotoxicity against human RXF393 cells by SRB assay; assay type: functional
U-251 = assay: Cytotoxicity against human U251 cells by SRB assay; assay type: functional
PC-3 = assay: Cytotoxicity against human PC3 cells by SRB assay; assay type: functional
NCI-H23 = assay: Cytotoxicity against human NCI-H23 cells by SRB assay; assay type: functional
[2] = Cytotoxicity against human melanoma cells by SRB assay; assay type: functional; details: Melanoma cell
HOP-92 = assay: Cytotoxicity against human HOP92 cells by SRB assay; assay type: functional
HOP-62 = assay: Cytotoxicity against human HOP62 cells by SRB assay; assay type: functional
HCT-116 = assay: Cytotoxicity against human HCT116 cells by SRB assay; assay type: functional
K562 = assay: Cytotoxicity against human K562 cells by SRB assay; assay type: functional
CCRF-CEM = assay: Cytotoxicity against human CCRF-CEM cells by SRB assay; assay type: functional
NCI-H322M = assay: Cytotoxicity against human NCI-H322M cells by SRB assay; assay type: functional
OVCAR-8 = assay: Cytotoxicity against human OVCAR8 cells by SRB assay; assay type: functional
SK-MEL-2 = assay: Cytotoxicity against human SK-MEL-2 cells by SRB assay; assay type: functional
[3] = Cytotoxicity against human Colon cancer cells by SRB assay; assay type: functional; details: Cancer cell lines
EKVX = assay: Cytotoxicity against human EKVX cells by SRB assay; assay type: functional
SF-295 = assay: Cytotoxicity against human SF295 cells by SRB assay; assay type: functional
NCI-H226 = assay: Cytotoxicity against human NCI-H226 cells by SRB assay; assay type: functional
MDA-MB-231 = assay: Cytotoxicity against human MDA-MB-231 cells by SRB assay; assay type: functional
SK-MEL-28 = assay: Cytotoxicity against human SK-MEL-28 cells by SRB assay; assay type: functional
DU-145 = assay: Cytotoxicity against human DU145 cells by SRB assay; assay type: functional
RPMI-8226 = assay: Cytotoxicity against human RPMI8226 cells by SRB assay; assay type: functional
M14 = assay: Cytotoxicity against human M14 cells by SRB assay; assay type: functional
A549 = assay: Cytotoxicity against human A549 cells by SRB assay; assay type: functional
OVCAR-5 = assay: Cytotoxicity against human OVCAR5 cells by SRB assay; assay type: functional
NSCLC = assay: Cytotoxicity against human NSCLC cells by SRB assay; assay type: functional
[4] = Cytotoxicity against human ovarian cancer cells by SRB assay; assay type: functional; details: Cancer cell lines
SK-MEL-5 = assay: Cytotoxicity against human SK-MEL-5 cells by SRB assay; assay type: functional
KM12 = assay: Cytotoxicity against human KM12 cells by SRB assay; assay type: functional
NCI-H460 = assay: Cytotoxicity against human NCI-H460 cells by SRB assay; assay type: functional
SNB-19 = assay: Cytotoxicity against human SNB19 cells by SRB assay; assay type: functional
NCI-H522 = assay: Cytotoxicity against human NCI-H522 cells by SRB assay; assay type: functional
[5] = Cytotoxicity against human prostate cancer cells by SRB assay; assay type: functional; details: Cancer cell lines
BT-549 = assay: Cytotoxicity against human BT549 cells by SRB assay; assay type: functional
HCC 2998 = assay: Cytotoxicity against human HCC2998 cells by SRB assay; assay type: functional
MOLT-4 = assay: Cytotoxicity against human MOLT4 cells by SRB assay; assay type: functional
MDA-MB-435 = assay: Cytotoxicity against human MDA-MB-435 cells by SRB assay; assay type: functional
[6] = Cytotoxicity against human breast cancer cells by SRB assay; assay type: functional; details: Cancer cell lines
[7] = Cytotoxicity against human Hs 578T cells by SRB assay; assay type: functional
[8] = Cytotoxicity against human 786-O cells by SRB assay; assay type: functional; details: 786-0
SNB-75 = assay: Cytotoxicity against human SNB75 cells by SRB assay; assay type: functional
[9] = Cytotoxicity against human HL60(TB) cells by SRB assay; assay type: functional, HL-60(TB); details: HL-60
A498 = assay: Cytotoxicity against human A498 cells by SRB assay; assay type: functional
UACC-62 = assay: Cytotoxicity against human UACC62 cells by SRB assay; assay type: functional
OVCAR-4 = assay: Cytotoxicity against human OVCAR4 cells by SRB assay; assay type: functional
LOX IMVI = assay: Cytotoxicity against human LOXIMVI cells by SRB assay; assay type: functional
MCF7 = assay: Cytotoxicity against human MCF7 cells by SRB assay; assay type: functional
[10] = Cytotoxicity against human renal cancer cells by SRB assay; assay type: functional; details: Cancer cell lines
HCT-15 = assay: Cytotoxicity against human HCT15 cells by SRB assay; assay type: functional
CAKI-1 = assay: Cytotoxicity against human Caki1 cells by SRB assay; assay type: functional
ACHN = assay: Cytotoxicity against human ACHN cells by SRB assay; assay type: functional
UO-31 = assay: Cytotoxicity against human UO31 cells by SRB assay; assay type: functional
T47D = assay: Cytotoxicity against human T47D cells by SRB assay; assay type: functional
[11] = Cytotoxicity against human CNS cancer cells by SRB assay; assay type: functional; details: Cancer cell lines
SR = assay: Cytotoxicity against human SR cells by SRB assay; assay type: functional
OVCAR-3 = assay: Cytotoxicity against human OVCAR-3 cells by SRB assay; assay type: functional
SF-268 = assay: Cytotoxicity against human SF268 cells by SRB assay; assay type: functional
SW-620 = assay: Cytotoxicity against human SW620 cells by SRB assay; assay type: functional
Leukemia cell = assay: Cytotoxicity against human Leukemia cells by SRB assay; assay type: functional
UACC-257 = assay: Cytotoxicity against human UACC257 cells by SRB assay; assay type: functional
Malme-3M = assay: Cytotoxicity against human MALME-3M cells by SRB assay; assay type: functional

Compound: C=C(C)[C@@H](O)[C@H](O)C[C@H](C)[C@@H]1CC[C@]2(C)C1=CC[C@@H]1[C@@]3(C)CC[C@@H](OC(C)=O)C(C)(C)[C@@H]3C[C@@H](O[C@@H]3O[C@H](COC(C)=O)[C@@H](O)[C@H](O)[C@H]3O)[C@]12C
- GI50 (MDA-N): 2340 nM
- GI50 [1]: 16200 nM
- GI50 (COLO 205): 2040 nM
- TGI (COLO 205): 3500 nM
- GI50 (SN12C): 3090 nM
- GI50 (HT-29): 1910 nM
- TGI (HT-29): 3800 nM
- GI50 (IGROV-1): 2340 nM
- GI50 (SK-OV-3): 2880 nM
- GI50 (RXF 393): 2090 nM
- GI50 (U-251): 2190 nM
- GI50 (PC-3): 2140 nM
- GI50 (NCI-H23): 4170 nM
- TGI [2]: 4200 nM
- GI50 (HOP-92): 2340 nM
- GI50 (HOP-62): 2630 nM
- GI50 (HCT-116): 1860 nM
- TGI (HCT-116): 3500 nM
- GI50 (K562): 1910 nM
- GI50 (CCRF-CEM): 2240 nM
- GI50 (NCI-H322M): 1860 nM
- GI50 (OVCAR-8): 3630 nM
- GI50 (SK-MEL-2): 2000 nM
- TGI [3]: 5000 nM
- GI50 (EKVX): 3160 nM
- GI50 (SF-295): 2190 nM
- GI50 (NCI-H226): 3020 nM
- GI50 (MDA-MB-231): 1860 nM
- GI50 (SK-MEL-28): 2340 nM
- GI50 (DU-145): 2570 nM
- GI50 (RPMI-8226): 1910 nM
- GI50 (M14): 2090 nM
- GI50 (A549): 3240 nM
- GI50 (OVCAR-5): 1910 nM
- TGI (NSCLC): 9000 nM
- TGI [4]: 7400 nM
- GI50 (SK-MEL-5): 1910 nM
- GI50 (KM12): 1580 nM
- TGI (KM12): 3000 nM
- GI50 (NCI-H460): 2450 nM
- GI50 (SNB-19): 3890 nM
- GI50 (NCI-H522): 1820 nM
- TGI [5]: 7000 nM
- GI50 (BT-549): 3390 nM
- GI50 (HCC 2998): 77.6 nM
- TGI (HCC 2998): 900 nM
- GI50 (MOLT-4): 2290 nM
- GI50 (MDA-MB-435): 1950 nM
- TGI [6]: 10700 nM
- GI50 [7]: 2340 nM
- GI50 [8]: 3720 nM
- GI50 (SNB-75): 1860 nM
- GI50 [9]: 2090 nM
- GI50 (A498): 3890 nM
- GI50 (UACC-62): 1510 nM
- GI50 (OVCAR-4): 2950 nM
- GI50 (LOX IMVI): 1620 nM
- GI50 (MCF7): 2750 nM
- TGI [10]: 9700 nM
- GI50 (HCT-15): 2950 nM
- TGI (HCT-15): 10000 nM
- GI50 (CAKI-1): 2630 nM
- GI50 (ACHN): 1910 nM
- GI50 (UO-31): 3890 nM
- GI50 (T47D): 2570 nM
- TGI [11]: 9500 nM
- GI50 (SR): 1910 nM
- GI50 (OVCAR-3): 1860 nM
- GI50 (SF-268): 2820 nM
- GI50 (SW-620): 3020 nM
- TGI (SW-620): 10400 nM
- TGI (Leukemia cell): 5100 nM
- GI50 (UACC-257): 2750 nM
- GI50 (Malme-3M): 1580 nM
